# From article PMC5321741, “Arylmethylamino steroids as antiparasitic agents” (Nature Communications, 2017)
# Where “and” joins values, the source holds several entries; their conditions need not be identical. Equal entries are not always repeated. Structures can show the parent of a compound that is named as a salt. Where two headings read alike, the source gives them in different places.
# Assays:
# [1] = test system: adult Schistosoma mansoni; assay: schistosome in vitro culture with inhibitor treatment; type: cell-based
# [2] = test system: P. falciparum (strain 3D7); assay: 72 h 3H-hypoxanthine incorporation assay, asexual blood stages; type: cell-based, Plasmodium falciparum; details: Plasmodium falciparum
# [3] = test system: P. berghei GFP ANKA malaria strain; assay: P. berghei mouse model (Peter's test); type: in vivo, Plasmodium berghei in NMRI mice; details: for % activity (reduction of parasitaemia) / % of control / Parasitized RBC over 100, Average / Parasitized RBC over 100, individual mice M1-M3: day 4
# Description: The animal experiments described here were performed at the Swiss Tropical and Public Health Institute (Swiss TPH, Basel, Switzerland), they were approved by the Swiss Cantonal Authorities (‘Kantonales Veterinäramt Basel Stadt') adhering to local and national regulations of laboratory animal welfare in Switzerland. The best compounds were tested in the murine P. berghei model essentially as described. The infection was initiated at day 0 with the P. berghei GFP ANKA malaria strain (donation from AP Waters and CJ Janse, Leiden University). From donor mice (female NMRI mice, 18–20 grams (about 3 weeks) from Charles River Germany) with ∼30% parasitaemia, heparinized blood was taken and diluted in physiological saline to 10^8 parasitized erythrocytes/ml. An aliquot (0.2 ml) of this suspension was injected intravenously into experimental and control groups of mice (female NMRI mice, 18–20 grams (about 3 weeks) from Charles River Germany). Usually, in untreated control mice parasitaemia rose regularly to ∼30% by day 3 post-infection. Control mice died between days 6 and 7 post infection. In the experiments described here, however, control animals (n=5) were killed on day 4 post infection for ethical reasons.
# The steroid compounds were prepared at an appropriate concentration as a solution/suspension in Tween 80/alcohol (7:3, Tween 80 and absolute ethanol, respectively), followed by a 10x dilution in water. […] The route of administration was i.p., p.o., s.c. in a volume of 10 ml kg^−1.
# The degree of infection (parasitaemia expressed in % of infected erythrocytes) was determined by FACS analysis on day 4 (96 h post infection). The difference of the mean infection rate of the control group (=100%) to the test group was calculated and expressed as a percent reduction. For example, activity determination with a mean of 2% parasitaemia in treated mice and a mean of 40% parasitaemia in the control animals is calculated as follows: (40−2%)/40% × 100=95% activity. The survival time in days was recorded up to 30 days after infection. A compound was considered curative if the animal survived to day 30 after infection with no detectable parasites (confirmed by light microscopy).
# [4] = cytotoxicity on HeLa cells; type: cell-based; details: human, HeLa cells
# Description: (§1) Compounds were tested for their antiproliferative activity on HUVEC and K-562 cells and for cytotoxicity on HeLa cells using standard protocols. K-562 (DSM ACC 10), HUVEC (ATCC CRL-1730), and HeLa (DSM ACC 57) cells were cultured as described previously. To assay the antiproliferative and cytotoxic effect, procedures were carried out as described before. In brief, for each experiment with K-562 and HeLa ∼10,000 cells were seeded per well of the 96-well microplates. For the cytotoxicity assay, the HeLa cells were preincubated for 48 h without the test substances. Cells were incubated for 72 h at 37 °C in a humidified atmosphere and 5% CO2. Suspension cultures of K-562 in microplates were analysed by an electronic cell analyzer system CASY 1 (SCHÄRFE, Reutlingen, Germany). The monolayer of the HUVEC and HeLa cells were fixed by glutaraldehyde (MERCK) and stained with a 0.05% solution of methylene blue (SERVA). After gently washing, the stain was eluted by 0.2 ml of 0.33 N HCl in the wells. The optical densities were measured at 660 nm in a microplate reader. The calculations of the different values of GI50 and CC50 were performed with the software Magellan (TECAN).
# K-562 = assay: antiproliferative activity on K-562 cells; type: cell-based; details: Homo sapiens, K562, 72 h
# Description: as §1
# HUVEC = assay: antiproliferative activity on HUVEC cells; type: cell-based; details: Homo sapiens, HUVEC, 72 h
# Description: as §1
# P. falciparum NF54 = assay: IC50 speed assay; type: cell-based, Plasmodium falciparum; details: for IC50: Plasmodium falciparum, mean±s.d., three biological replicates
# Description: To assess the rapidity of growth inhibition induced by the steroid compounds, the so-called IC50 speed assay[16] was conducted for compound 1o on P. falciparum NF54 (Fig. 2a,b).
# haem = assay: ESI-MS collision-induced dissociation of haem adducts; type: binding; details: 50 µM haem and 50 µM substrate
# Description: Compound Molar Adduct DV50 Bottom Dissociation mass [Haem+S] (V) plateau Constant
# Supplementary Table 7. ESI-MS-CID data (m/z, calculated DV50 = dissociation voltage at 50% and % bottom plateau) of the [haematin-drug]+ adducts and dissociation constants (KD, µM) of the haematin-drug complexes measured with absorption spectrophotometric titrations.
# Conditions: 50 µM haem and 50 µM substrate in H2O/CH3CN (5/95) + 0.1% formic acid.
# Stability responses of the haem substrate adduct were obtained via ESI-CID experiments.
# Positive mode; fragmentor voltage from 20 V to 400 V with 20 V increments. […]
# - 41/120 g), and complete dissolution was achieved using an ultrasonic bath. All solutions were protected from daylight to avoid any photochemical degradation. All the physiochemical measurements were carried out at 25.0(2) °C. […]
# Electrospray mass spectrometric measurements stopping point
# Electrospray mass spectra of the haem complexes were obtained with an Agilent Technologies 6120 quadrupole equipped with an electrospray (ESI) interface. For
# [5] = 3D7, 72 h 3H-hypoxanthine incorporation, asexual blood stages, read-out: Antiplasmodial activity IC50 Pf (3D7)
# [6] = NF54, read-out: IC50 24 h, 24 h compound incubation
# [7] = NF54, 48 h compound incubation, read-out: IC50 48 h
# [8] = NF54, 72 h compound incubation, read-out: IC50 72 h
compound,measurement,setting,value
Oc1ccccc1CNC1CCCC1 (as salt: perchlorate) [15c],melting point,,168 to 169 °C
Oc1ccccc1CNC1CCCCC1 (as salt: perchlorate) [16c],melting point,,152 to 153 °C
Oc1ccccc1CNC1CCCCCCC1 (as salt: perchlorate) [17c],melting point,,136 to 138.5 °C
Oc1ccccc1CNc1ccccc1 (as salt: perchlorate) [19c],melting point,,183 to 186 °C
COc1ccc2c(c1)CCC1C2CC[C@@]2(C)C1CC[C@H]2NCc1ccccc1O (stereo partly shown) [1c],morphological effects (confocal laser scanning microscopy),"[1]; 5 μM, 6–13 days",Aggregate-like degradation products of the gastrodermis occurred within the gut lumen
same,time to death of worms,[1]; 10 µM,6 days
same,time to death of worms,[1]; 20 µM,2 days
same,starting concentration with negative influence on worm physiology,"[1]; pairing stability, egg production, survival, bright-field microscopy",1 μM
same,IC50,[2]; [5],7.4 nM
same,"Mouse survival in days, Average",[3]; 3x 10 mg/kg p.o.,9 days
same,"Mouse survival in days, individual mice M1-M3",[3]; 3x 10 mg/kg p.o.,8 days and 11 days and 7 days
same,% activity (reduction of parasitaemia),[3]; 3x 10 mg/kg p.o.,47%
same,% of control,[3]; 3x 10 mg/kg p.o.,53%
same,"Parasitized RBC over 100, Average",[3]; 3x 10 mg/kg p.o.,36
same,"Parasitized RBC over 100, individual mice M1-M3",[3]; 3x 10 mg/kg p.o.,28 and 26 and 53
same,"Mouse survival in days, Average",[3]; 3x 10 mg/kg s.c.,7 days
same,"Mouse survival in days, individual mice M1-M3",[3]; 3x 10 mg/kg s.c.,7 days and 6 days and 8 days
same,% activity (reduction of parasitaemia),[3]; 3x 10 mg/kg s.c.,< 40%
same,% of control,[3]; 3x 10 mg/kg s.c.,83%
same,"Parasitized RBC over 100, Average",[3]; 3x 10 mg/kg s.c.,56
same,"Parasitized RBC over 100, individual mice M1-M3",[3]; 3x 10 mg/kg s.c.,57 and 68 and 42
same,"Mouse survival in days, Average",[3]; 3x 30 mg/kg p.o.,13 days
same,"Mouse survival in days, individual mice M1-M3",[3]; 3x 30 mg/kg p.o.,13 days and 12 days and 14 days
same,% activity (reduction of parasitaemia),[3]; 3x 30 mg/kg p.o.,99.4%
same,% of control,[3]; 3x 30 mg/kg p.o.,0.65%
same,"Parasitized RBC over 100, Average",[3]; 3x 30 mg/kg p.o.,0.44
same,"Parasitized RBC over 100, individual mice M1-M3",[3]; 3x 30 mg/kg p.o.,0.53 and 0.31 and 0.48
same,"Mouse survival in days, Average",[3]; 3x 30 mg/kg s.c.,14 days
same,"Mouse survival in days, individual mice M1-M3",[3]; 3x 30 mg/kg s.c.,14 days
same,% activity (reduction of parasitaemia),[3]; 3x 30 mg/kg s.c.,62%
same,% of control,[3]; 3x 30 mg/kg s.c.,38%
same,"Parasitized RBC over 100, Average",[3]; 3x 30 mg/kg s.c.,26
same,"Parasitized RBC over 100, individual mice M1-M3",[3]; 3x 30 mg/kg s.c.,21 and 24 and 32
same,"Mouse survival in days, Average",[3]; 3x 100 mg/kg p.o.,15 days
same,"Mouse survival in days, individual mice M1-M3",[3]; 3x 100 mg/kg p.o.,15 days and 17 days and 14 days
same,% activity (reduction of parasitaemia),[3]; 3x 100 mg/kg p.o.,99.7%
same,% of control,[3]; 3x 100 mg/kg p.o.,0.30%
same,"Parasitized RBC over 100, Average",[3]; 3x 100 mg/kg p.o.,0.20
same,"Parasitized RBC over 100, individual mice M1-M3",[3]; 3x 100 mg/kg p.o.,0.23 (2×) and 0.14
same,CC50 at 72 h,[4],> 128 µM
same,GI50,K-562,5.9 µM
same,GI50,HUVEC,17.1 µM
COc1ccc2c(c1)CCC1C2CC[C@@]2(C)C1CC[C@@H]2NCc1ccccc1O (stereo partly shown) [2c],IC50,[2]; [5],73 nM
same,"Mouse survival in days, Average",[3]; 3x 10 mg/kg s.c.,10 days
same,% activity (reduction of parasitaemia),[3]; 3x 10 mg/kg s.c.,47%
same,"Mouse survival in days, Average",[3]; 3x 30 mg/kg s.c.,14 days
same,% activity (reduction of parasitaemia),[3]; 3x 30 mg/kg s.c.,87%
same,"Mouse survival in days, Average",[3]; 3x 100 mg/kg p.o.,16 days
same,% activity (reduction of parasitaemia),[3]; 3x 100 mg/kg p.o.,99%
same,CC50 at 72 h,[4],42.9 µM
same,GI50,K-562,5.1 µM
same,GI50,HUVEC,10 µM
Oc1ccccc1CNc1ccc2ccc3cccc4ccc1c2c34 [20c],melting point,,160 to 163 °C
same,IC50,"[2]; 3D7, non-steroid-derived analogs, read-out: IC50 on P. falciparum 3D7 asexual blood stages",5600 nM
C[C@H]1[C@H](OC(=O)CCC(=O)O)O[C@@H]2O[C@@]3(C)CC[C@H]4[C@H](C)CC[C@@H]1[C@@]24OO3 [Artesunate],IC50,P. falciparum NF54; [6],5.5 ± 0.8 nM
same,IC50,P. falciparum NF54; [7],5.7 ± 0.5 nM
same,IC50,P. falciparum NF54; [8],4.7 ± 0.3 nM
CCc1nc(N)nc(N)c1-c1ccc(Cl)cc1 [Pyrimethamine],"speed of action (IC50 shift across 24, 48, 72 h)",P. falciparum NF54,slow-acting compound
same,IC50,P. falciparum NF54; [6],220 ± 61 nM
same,IC50,P. falciparum NF54; [7],30.4 ± 7.6 nM
same,IC50,P. falciparum NF54; [8],15.2 ± 1.6 nM
COc1ccc2c(c1)CCC1C2CC[C@@]2(C)C1CC[C@@H]2N(CCCn1ccnc1)CCc1ccccn1 (stereo partly shown) [STS 948],IC50,[2]; [5],675 nM
same,CC50 at 72 h,[4],18.3 µM
same,GI50,K-562,6.6 µM
same,DV50 (dissociation voltage at 50%) of haem adduct,"haem; ESI-CID, 20 V to 400 V",367 V
same,Bottom plateau (adduct remaining at 400 V),haem; fragmentor voltage 400 V,36%
same,GI50,HUVEC,7.2 µM
